Measured values published in US7655395B2, “Isolation and use of ryanodine receptors” (E.I. du Pont de Nemours and Company, priority 2002, dated 2010).

Key:
[1] = target: native cockroach ryanodine receptors (roach femoral muscle membranes) (Periplaneta americana, UniProt A0ABQ8T696); test: Radioligand displacement ([3H]-GN analog Cpd 1) on roach femoral muscle membranes; format: binding
Description: Binding to Roach Femoral Muscle Membranes:
Assays were carried out in triplicate.

[2] = test system: native cockroach ryanodine receptors (in embryonic neuronal cells); test: Calcium release assay, calcium imaging of embryonic cockroach neuronal cells (Fluo-4); format: cell-based, Periplaneta americana
From the text: Embryonic neuronal cultures of the American cockroach Periplaneta americana were established, with minor modifications, following the method of Beadle and Lees (1988) (in Cell Culture Approaches to Invertebrate Neuroscience, Academic Press, New York, pp 123-127). Briefly, 26-27-day old oothecae were collected, surface-sterilized and cut open along a line one-third of the distance below the dorsal midline. The heads were removed and placed in Schneider's Drosophila medium (Invitrogen Life Technologies™, Carlsbad, Calif.). Using fine forceps 40 brains were individually removed and placed in a small glass vial containing 700 μl of ‘5+4’ medium (‘5+4’ medium contained 5 parts Schneider's Drosophila medium plus 4 parts roach Basal Medium Eagle, with Earle's salts (BME, Sigma™, St. Louis, Mo.). Roach BME (with Earle's salts) contained 5 parts Hepes (1 M), 1 part penicillin/streptomycin and 44 parts BME (with Earle's salts). ‘5+4’ medium was made fresh and sterile filtered (0.2 μm filter) just prior to use). The brains were dissociated by sequential trituration as follows: 1) brains were passed through a standard Pasteur pipette 10 times; 2) the resulting tissue suspension was passed an additional 5 times through a Pasteur pipet with tip flamed to about half of its original diameter; 3) a final 5 passes were performed using a Pasteur pipet with tip flamed to slightly less than half of its original diameter. A repeat pipettor was used to dispense a 5 μl volume of the resulting suspension into the center of each well of a 96-well, glass-bottom plate previously coated with poly-L-lysine (0.2 mg/ml solution). Cells attached to the bottom of the wells during a 50 min incubation at 27-29° C. 150 ul of a 1:1 mixture of Leibovitz's L-15 medium and Yunker's modified Grace's medium was added, and plates were maintained in a humid incubator at 27-29° C. until use. After cells were allowed to attach wells were filled with a 1:1 mixture of Leibovitz's L-15 medium and Yunker's modified Grace's medium (Leibovitz's L-15 and Grace's medium were obtained from Invitrogen Life Technologies™, Carlsbad, Calif. and Yunker's modified Grace's medium was made with Grace's medium modified by addition of 5 mg L-methionine, 10 mg L-alanine, 182 mg MgCl2.6H20, 1 g Albumin Fraction V, 7 ml Fetal bovine serum, 10 ml Chick embryo extract, 2 ml Penicillin/Streptomycin, and 2 mg 20-hydroxyecdysone (prepared in ethanol prior to addition) to a final volume of 100 ml and sterile filtered (0.2 μm filter)). Cells were maintained in a high humidity incubator at 29° C. until testing.
The calcium imaging and acquisition protocols using roach neuronal cells is as follows:
Cells were rinsed in standard physiological saline having the following composition (mM): NaCl 190; CaCl2 9; KCl 3.1; probenicid 1; Tris buffer 10; pH 7.2. Cells were then bathed in standard physiological saline containing the calcium sensitive fluoroprobe Fluo-4 AM (2 μM) and Pluronic F127 (0.002%) for 45 min. Cells were then rinsed in standard physiological saline for at least 15 min prior to testing. Within the hour prior to testing, standard physiological saline was replaced with standard physiological saline containing the organic cation channel blocker pimozide (10 μM), to inhibit influx of external calcium through voltage-gated calcium channels. The 96-well plate was placed on a Prior™ motorized stage mounted onto a Nikon Diaphot microscope and imaged using a 20× Fluor objective (NA 0.75). Individual wells from the 96-well plate were sequentially excited with light at 495 nm, and the emitted fluorescence at 530 nm was detected using a Hamamatsu ORCA ER digital camera with 2 pixel binning (image size 672×512 pixels).
Acquisition control, image processing and image analysis were conducted using Universal Imaging Corporation's MetaMorph™ imaging software (Universal Imaging, West Chester, Pa.). A series of 3 “control” images were acquired for each well. […]

[3] = test system: control cells without DNA / wild-type Sf9 cells; test: Calcium response in control Sf9 cells (without DNA, lipid only, non-transfected, wild type); format: cell-based, Spodoptera frugiperda
From the text: Several drops of a suspension of recombinant Spodoptera frugiperda cell line, Sf9, transiently expressing insect ryanodine receptors were placed on a poly-L-lysine-coated coverslip and allowed to attach. Cells were then rinsed in physiological saline having the following composition (mM): NaCl 130; KCl 5.4; MgCl2 1.2; CaCl2 1.0; NaHCO3 4.2; NaH2P04 7.3; Glucose 10; Sucrose 63; MES 20; pH 6.3. Cells were then bathed in physiological saline containing the calcium sensitive fluoroprobe, Fura-2 AM (2 μM), and Pluronic F127 (0.002%) for 30 min. Cells were rinsed in standard physiological saline for at least 15 min prior to testing. Testing was conducted in standard physiological saline, as the cell lines are devoid of functional voltage-gated calcium channels.
Imaging studies were conducted using a Nikon Diaphot microscope with a 40× oil immersion objective (NA 1.3) Image acquisition and processing was performed using the MetaFluor™ imaging system from Universal Imaging Corporation (West Chester, Pa.) Calcium calibration was carried out using the Grynkiewicz equation with a dissociation constant (Kd) of 145 nM for Fura-2 (Grynkiewicz et al., 1985). Cell-attached coverslips were placed in a sealed chamber with physiological saline continuously perfused across the cells using a peristaltic pump. Test compounds solubilized in physiological saline were applied by switching the perfusate source.
For studies involving the stable recombinant Spodoptera frugiperda cell line, Sf9, (other cell lines could also be used such as Sf21, S2, etc) expressing an insect ryanodine receptor from Drosophila melanogaster, or Heliothis virescens (alternatively receptors from other species such as Myzus persicae, Peregrinus maidis, Aphis gossypii, etc) were grown in T75 (or other appropriate sized) flasks in supplemented Grace's insect medium. Cells were maintained in an incubator at 22° C. until testing. Cells were suspension-loaded with the calcium sensitive fluoroprobe, Fura-2 AM (1-2 μM) and Pluronic F127 (0.002%) in culture medium for 30 minutes under agitation. Cells were then centrifuged and the pellet resuspended in physiological saline having the following composition (mM): NaCl 130; KCl 5.4; MgCl2 1.2; CaCl2 1.0; NaHCO3 4.2; NaH2P04 7.3; Glucose 10; Sucrose 63; MES 20; pH 6.3 at approximately 150,000-200,000 cells per well (96-well plate). After a 30 minute equilibration period the cell plate was tested using a Molecular Devices' FlexStation™ system with dual wavelength excitation (340 and 380 nm) and fluorescence emission measured at 510 nm. Test and control samples were added using integrated fluidics and the intracellular calcium monitored over a 2 minute period.

native cockroach ryanodine receptors (roach femoral muscle membranes), sequence (A0ABQ8T696 entry or part of it): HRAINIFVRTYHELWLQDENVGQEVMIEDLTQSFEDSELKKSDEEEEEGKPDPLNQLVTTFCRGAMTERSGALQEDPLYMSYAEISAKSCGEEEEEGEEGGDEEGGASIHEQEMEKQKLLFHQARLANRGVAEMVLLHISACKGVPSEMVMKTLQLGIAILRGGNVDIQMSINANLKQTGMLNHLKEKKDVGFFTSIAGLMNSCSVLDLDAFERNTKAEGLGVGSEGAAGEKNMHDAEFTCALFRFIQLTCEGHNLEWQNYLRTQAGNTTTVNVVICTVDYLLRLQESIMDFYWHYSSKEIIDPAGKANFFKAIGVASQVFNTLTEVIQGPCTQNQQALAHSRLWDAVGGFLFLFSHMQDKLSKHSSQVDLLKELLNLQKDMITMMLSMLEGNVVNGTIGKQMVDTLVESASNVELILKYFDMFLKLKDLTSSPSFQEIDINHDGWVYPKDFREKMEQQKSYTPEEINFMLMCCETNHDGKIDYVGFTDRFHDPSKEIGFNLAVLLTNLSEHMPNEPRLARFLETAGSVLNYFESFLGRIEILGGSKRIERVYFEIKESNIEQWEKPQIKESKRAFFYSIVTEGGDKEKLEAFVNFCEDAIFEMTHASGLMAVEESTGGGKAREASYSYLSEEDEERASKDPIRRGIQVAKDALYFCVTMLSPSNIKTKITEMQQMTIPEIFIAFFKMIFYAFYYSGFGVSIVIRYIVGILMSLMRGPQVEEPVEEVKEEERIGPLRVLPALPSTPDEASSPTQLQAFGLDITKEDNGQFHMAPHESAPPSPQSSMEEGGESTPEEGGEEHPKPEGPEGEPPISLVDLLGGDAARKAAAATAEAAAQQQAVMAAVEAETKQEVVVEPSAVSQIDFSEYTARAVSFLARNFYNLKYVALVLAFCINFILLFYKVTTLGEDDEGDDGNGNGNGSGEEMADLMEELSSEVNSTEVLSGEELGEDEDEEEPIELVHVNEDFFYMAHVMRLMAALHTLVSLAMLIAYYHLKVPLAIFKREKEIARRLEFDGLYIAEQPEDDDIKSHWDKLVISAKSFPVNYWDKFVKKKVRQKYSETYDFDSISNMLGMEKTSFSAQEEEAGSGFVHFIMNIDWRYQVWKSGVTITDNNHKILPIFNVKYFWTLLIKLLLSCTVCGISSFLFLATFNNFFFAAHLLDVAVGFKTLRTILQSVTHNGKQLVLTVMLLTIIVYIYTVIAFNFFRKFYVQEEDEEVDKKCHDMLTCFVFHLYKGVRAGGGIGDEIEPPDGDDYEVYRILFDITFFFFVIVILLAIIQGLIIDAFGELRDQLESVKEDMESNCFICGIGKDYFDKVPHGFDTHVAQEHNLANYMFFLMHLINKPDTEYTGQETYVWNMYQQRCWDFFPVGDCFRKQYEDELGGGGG

## Cn1c(=O)c2c(ncn2C)n(C)c1=O [Caffeine, reference compound]
[1]; Table 6, result in words
  Radioligand Displacement (P. americana): Inactive
[2]; Table 6, result in words
  Calcium Release (P. americana): Agonist
[3]; caffeine 10 mM
  calcium response in control cells without DNA: No significant calcium responses
[3]; wild-type Sf9 cells (Sf9-WT), FlexStation, FIG. 6
  caffeine dose response, calcium mobilization: insensitive

## CNC(=O)c1cc(Cl)cc(C)c1NC(=O)c1cc(Br)nn1-c1ncccc1Cl [Cpd 14]
[1]; displacement of [3H]-Cpd 1, roach muscle membranes, 60 min at 32° C., read-out: Displacement IC50 (nM) P. americana
  IC50: < 300 nM
[2]
  Calcium Release Threshold (nM) P. americana: <300 nM
